# Data reported in US9499550B2 (BRISTOL-MYERS SQUIBB COMPANY, priority 2012, dated 2016).
# Where two headings read alike, the source gives them in different places.
# Assays:
# [1] = test system: HCV genotype 1a (H77 strain) replicon in HUH-7 cells; test: HCV replicon luciferase reporter assay, genotype 1a; assay type: cell-based; settings: Hepatitis C virus, Huh-7, 72 h, 3 days incubation
# Excerpt: (§1) Generation of HCV Replicon
# (§2) An HCV replicon whole cell system was established as described by Lohmann V, Korner F, Koch J, Herian U, Theilmann L, Bartenschlager R., Science 285(5424):110-3 (1999) and modified to introduce a luciferase reporter, as first described by Krieger et al (Krieger N, Lohmann V, and Bartenschlager R, J. Virol. 75(10):4614-4624 (2001)). CDNA encoding a humanized form of the Renilla luciferase gene and a linker sequence fused directly to the 3′-end of the luciferase gene were introduced into the replicon construct using an Asc1 restriction site located in core, directly upstream of the neomycin marker gene. The adaptive mutation at position 1179 (serine to isoleucine) was also introduced (Blight K J, Kolykhalov, A A, Rice, C M, Science 290(5498):1972-1974). A stable cell line constitutively expressing this HCV replicon construct was generated by first linearizing plasmid DNAs with ScaI. RNA transcripts were synthesized in vitro using the T7 MegaScript transcription kit (Ambion, Austin, Tex.) according to manufacturer's directions. In vitro transcripts of the cDNA were transfected into the human hepatoma cell line, HUH-7. […] Resulting cell lines were characterized for positive and negative strand RNA production and protein production over time.
# A stable HCV replicon luciferase reporter cell line representing the genotype 1a H77 strain (Yanagi M, Purcell R H, Emerson S U, et al. Transcripts from a single full-length cDNA clone of hepatitis C virus are infectious when directly transfected into the liver of a chimpanzee. Proc Natl Acad Sci USA 1997; 94(16):8738-8743) was generated as described previously for the genotype 1b(Con1) replicon luciferase cell line. The replicon construct was modified by introducing mutations were introduced into the genes encoding the NS3 helicase domain (proline replaced by leucine at position 1496) and NSSA (serine to isoleucine at position 2204) to improve replication in cell culture.
# (§3) HCV Replicon Luciferase Reporter Assay
# (§4) HCV replicon luciferase assays were developed to monitor the inhibitory effects of compounds described in the disclosure on HCV genotypes 1a and 1b viral replication. HUH-7 cells, constitutively expressing the HCV replicon, were grown in Dulbecco's Modified Eagle Media (DMEM) (Gibco-BRL) containing 10% Fetal calf serum (FCS) (Sigma) and 1 mg/mL G418 (Gibco-BRL). Compounds were serially diluted 3 folds in DMSO for a twenty-point titration and subsequently transferred to sterile 384-well tissue-culture treated plates (Corning cat #3571). The plates were then seeded with 50 μL of cells at a density of 3.0×10^3 cells/well in DMEM containing 4% FCS (final DMSO concentration at 0.5%). After 3 days incubation at 37° C., cells were analyzed for Renilla Luciferase activity using the EnduRen as substrate (Promega cat #E6485). The EnduRen substrate was diluted in DMEM and then added to the plates to a final concentration of 7.5 μM. The plates were incubated for 2 hrs at 37° C. and then read immediately for 30 seconds with Viewlux Imager (PerkinElmer) using a luminescence program. To assess cytotoxicity of compounds, CC50 values were generated by multiplexing the EnduRen-containing plates with Cell Titer-Blue (Promega, cat # G8082). Cell-Titer Blue (3 μL) was added to each well and incubated for 8 hrs at 37° C. The fluorescence signal from each well was read, with an excitation wavelength at 525/10 nm and an emission wavelength of 598/10 nm, using the Viewlux Imager.
# (§5) The EC50 values for compounds were calculated by using a four-parameter logistic equation: y=A+((B−A)/(1+((C/x)^D))), where A and B denotes minimal and maximal % inhibition, respectively, C is the EC50, D is the hill slope and x represents compound concentration.
# [2] = test system: HCV genotype 1b (Con1) replicon in HUH-7 cells; test: HCV replicon luciferase reporter assay, genotype 1b; assay type: cell-based; settings: Hepatitis C virus, Huh-7, 72 h, 3 days incubation
# Excerpt: as §1
# as §2, with “time. […]” for “time.”
# as §3, §4, §5
# [3] = HCV genotype 1a replicon luciferase, read-out: LE_1a (EC50, range)
# [4] = HCV genotype 1b replicon luciferase, read-out: LE_1b (EC50, range)
# [5] = HCV genotype 1a replicon luciferase assay, range class, read-out: LE_1a (EC50, range)
# [6] = HCV genotype 1b replicon luciferase assay, range class, read-out: LE_1b (EC50, range)
# [7] = HCV genotype 1a replicon luciferase assay, read-out: LE_1a (EC50)
# [8] = HCV genotype 1b replicon luciferase assay, read-out: LE_1b (EC50)
Compound,"EC50 [1, 3] [nM]","EC50 [2, 4] [nM]","EC50 [1, 5] [nM]","EC50 [2, 6] [nM]",also measured
"C[C@@H]1CC/C=C\[C@@H]2C[C@@]2(C(=O)NS(=O)(=O)C2(C)CC2)NC(=O)[C@@H]2C[C@@H](Oc3nccc4c5c(ccc34)OCCO5)CN2C(=O)[C@@H](NC(=O)OC(C)(C)C(F)(F)F)[C@H](C)C1 [Compound 5247, 1,1,1-trifluoro-2-methylpropan-2-yl((2R,6S,7R,9R,13aS,14aR,16aS,Z)-2-((2,3-dihydro-[1,4]dioxino[2,3-f]isoquinolin-7-yl)oxy)-7,9-dimethyl-14a-(((1-methylcyclopropyl)sulfonyl)carbamoyl)-5,16-dioxo-1,2,3,5,6,7,8,9,10,11,13a,14,14a,15,16,16a-hexadecahydrocyclopropa[e]pyrrolo[1,2-a][1,4]diazacyclopentadecin-6-yl)carbamate]",< 5.46,< 5.46,,,
"CC(C)Oc1cc2c(Cl)cccc2c(O[C@@H]2C[C@H]3C(=O)N[C@]4(C(=O)NS(=O)(=O)C5CC5)C[C@H]4/C=C\CC[C@@H](C)C[C@@H](C)[C@H](NC(=O)OC(C)(C)C(F)(F)F)C(=O)N3C2)n1 [Compound 1094, 1,1,1-trifluoro-2-methylpropan-2-yl((2R,6S,7R,9R,13aS,14aR,16aS,Z)-2-((5-chloro-3-isopropoxyisoquinolin-1-yl)oxy)-14a-((cyclopropylsulfonyl)carbamoyl)-7,9-dimethyl-5,16-dioxo-1,2,3,5,6,7,8,9,10,11,13a,14,14a,15,16,16a-hexadecahydrocyclopropa[e]pyrrolo[1,2-a][1,4]diazacyclopentadecin-6-yl)carbamate]",,,< 5.46,< 5.46,
"COCCn1nc(O[C@@H]2C[C@H]3C(=O)N[C@]4(C(=O)NS(=O)(=O)C5CC5)C[C@H]4/C=C\CC[C@H](C)C[C@@H](C)[C@H](NC(=O)OC(C)(C)C)C(=O)N3C2)c2ccccc2c1=O [Compound 1007, tert-butyl ((2R,6S,7R,9S,13aS,14aR,16aS,Z)-14a-((cyclopropylsulfonyl)carbamoyl)-2-((3-(2-methoxyethyl)-4-oxo-3,4-dihydrophthalazin-1-yl)oxy)-7,9-dimethyl-5,16-dioxo-1,2,3,5,6,7,8,9,10,11,13a,14,14a,15,16,16a-hexadecahydrocyclopropa[e]pyrrolo[1,2-a][1,4]diazacyclopentadecin-6-yl)carbamate]",,,> 87.4,> 87.4,"EC50 [1, 7]: ≥ 1000 nM; EC50 [2, 8]: 438 nM"
"CC(C)n1nc(O[C@@H]2C[C@H]3C(=O)N[C@]4(C(=O)NS(=O)(=O)C5CC5)C[C@H]4/C=C\CC[C@H](C)C[C@@H](C)[C@H](NC(=O)OC(C)(C)C)C(=O)N3C2)c2ccccc2c1=O [Compound 1001, tert-butyl ((2R,6S,7R,9S,13aS,14aR,16aS,Z)-14a-((cyclopropylsulfonyl)carbamoyl)-2-((3-isopropyl-4-oxo-3,4-dihydrophthalazin-1-yl)oxy)-7,9-dimethyl-5,16-dioxo-1,2,3,5,6,7,8,9,10,11,13a,14,14a,15,16,16a-hexadecahydrocyclopropa[e]pyrrolo[1,2-a][1,4]diazacyclopentadecin-6-yl)carbamate]",,,> 87.4,> 87.4,"EC50 [1, 7]: ≥ 1000 nM; EC50 [2, 8]: 449 nM"
"COc1ccc2c(O[C@@H]3C[C@H]4C(=O)N[C@]5(C(=O)NS(=O)(=O)C6CC6)C[C@H]5/C=C\CC[C@@H](C)C[C@@H](C)[C@H](NC(=O)OC(C)(C)C(F)(F)F)C(=O)N4C3)nc(-c3ccc(N4CCOCC4)cc3)cc2c1 [Compound 5197, 1,1,1-trifluoro-2-methylpropan-2-yl((2R,6S,7R,9R,13aS,14aR,16aS,Z)-14a-((cyclopropylsulfonyl)carbamoyl)-2-((6-methoxy-3-(4-morpholinophenyl)isoquinolin-1-yl)oxy)-7,9-dimethyl-5,16-dioxo-1,2,3,5,6,7,8,9,10,11,13a,14,14a,15,16,16a-hexadecahydrocyclopropa[e]pyrrolo[1,2-a][1,4]diazacyclopentadecin-6-yl)carbamate]",< 5.46,< 5.46,,,
"COc1cc(F)cc2c(O[C@@H]3C[C@H]4C(=O)N[C@]5(C(=O)NS(=O)(=O)C6(C)CC6)C[C@H]5/C=C\CC[C@H](C)C[C@@H](C)[C@H](NC(=O)O[C@@H]5C[C@@H]6C[C@@H]6C5)C(=O)N4C3)nccc12 [Compound 3159, (1R,3r,5S)-bicyclo[3.1.0]hexan-3-yl((2R,6S,7R,9S,13aS,14aR,16aS,Z)-2-((7-fluoro-5-methoxyisoquinolin-1-yl)oxy)-7,9-dimethyl-14a-(((1-methylcyclopropyl)sulfonyl)carbamoyl)-5,16-dioxo-1,2,3,5,6,7,8,9,10,11,13a,14,14a,15,16,16a-hexadecahydrocyclopropa[e]pyrrolo[1,2-a][1,4]diazacyclopentadecin-6-yl)carbamate]",,,4.82 to 103,< 5.46,
"[2H]C([2H])([2H])C(OC(=O)N[C@@H]1C(=O)N2C[C@H](Oc3nc(-c4ccc(OC(C)C)nc4)cc4cc(OC)ccc34)C[C@H]2C(=O)N[C@]2(C(=O)NS(=O)(=O)C3(C)CC3)C[C@H]2/C=C\CC[C@@H](C)C[C@H]1C)(C([2H])([2H])[2H])C(F)(F)F [Compound 5227, 1,1,1,3,3,3-hexadeutero-2-(trifluoromethyl)propan-2-yl((2R,6S,7R,9R,13aS,14aR,16aS,Z)-2-((3-(6-isopropoxypyridin-3-yl)-6-methoxyisoquinolin-1-yl)oxy)-7,9-dimethyl-14a-(((1-methylcyclopropyl)sulfonyl)carbamoyl)-5,16-dioxo-1,2,3,5,6,7,8,9,10,11,13a,14,14a,15,16,16a-hexadecahydrocyclopropa[e]pyrrolo[1,2-a][1,4]diazacyclopentadecin-6-yl)carbamate]",< 5.46,< 5.46,,,
CC[C@@H]1C[C@H](C)CC/C=C\[C@@H]2C[C@@]2(C(=O)NS(=O)(=O)C2(C)CC2)NC(=O)[C@@H]2C[C@@H](Oc3nc4cc(OC)ccc4nc3C(F)(F)F)CN2C(=O)[C@H]1NC(=O)OC(C)(C)C(F)(F)F [Compound 4244],,,,,"EC50 ([1]; GETYPE1A, HCV genotype 1a replicon luciferase, read-out: LE_1a (EC50, range)): 1.01 to 5 nM; EC50 ([2]; GETYPE1B, HCV genotype 1b replicon luciferase, read-out: LE_1b (EC50, range)): 1.01 to 5 nM"
